# Laboratory results taken from publication PMC10349806 (Nature Communications, 2023).
# “And” between values parts separate entries of the source, which are not always exact repeats. Identical values can stand only once.
# Assays:
# PfCRT variant E18A = experiment: CQ uptake assay, oocytes expressing E18A; format: cell-based, Plasmodium falciparum
# Method: (§1) Site-directed mutagenesis of PfCRT^Dd2 was performed as described using the megaprimer method with overlap extension[21],[54]. The primer pairs used are listed in Supplementary Table 6. Please note that a codon-optimized and oocyte-adapted version of PfCRT^Dd2 was used[22] (Supplementary Fig. 16). The resulting DNA fragment was cloned into the SP64T expression vector and verified by sequencing.
# (§2) Oocytes were obtained as described previously. Briefly, adult (>2 years old) female X. laevis frogs (NASCO) were anesthetized in a cooled solution of ethyl 3-amino benzoate methanesulfonate (0.1%, w/v), followed by a surgical removal of parts of the ovary. The ovary lobes were carefully dissected and small pieces of oocytes were incubated in Ca^2+-free ND96 buffer (96 mM NaCl, 2 mM KCl, 1 mM MgCl2 buffered with 5 mM HEPES/NaOH, pH 7.5) supplemented with collagenase D (0.1%, w/v; Roche), BSA (0.5%, w/v), and 9 mm Na2HPO4 at 18 °C for 14-16 h while gentle shaking. After incubation, the oocytes were carefully washed several times with ND96 buffer (96 mM NaCl, 2 mM KCl, 1.8 mM CaCl2, 1 mM MgCl2 buffered with 5 mM HEPES/NaOH, pH 7.5) supplemented with 100 mg l^−1 gentamycin). Defolliculated and healthy-looking stage V-VI oocytes were manually selected for RNA microinjection. The RNA was generated as following: The codon-optimized sequences of PfCRT variants were cloned into the pSP64T expression vector. After vector linearization using the restriction endonucleases BamHI or SalI (New England Biolabs), transcription was performed using the in vitro SP6 mMessage mMachine Kit (Ambion)[34]. The obtained RNA was kept at −80 °C and diluted with nuclease-free water to a concentration of 0.6 μg μl^−1. Precision-bore glass capillary tubes (3.5-inch glass capillaries; Drummond Scientific Co.) were pulled on a vertical puller (P-87 Flaming/Brown micropipette puller, Sutter Instrument Co.), graduated, and placed on a microinjector (Nanoject II Auto-Nanoliter Injector, Drummond Scientific Co.). 50 nl of nuclease-free water alone (control oocytes) or 50 nl of 0.6 μg μl^−1 RNA were injected under stereomicroscopic control. Injected oocytes were incubated for 46–72 h at 18 °C with twice-daily buffer changes before usage in experiments.
# (§3) Drug uptake assays were performed as described previously[21],[22],[24],[34]. […] The direction of radio-labeled drug transport is here from the mostly acidic extracellular solution (pH 4.5 or 6.0, as indicated) into the oocyte cytosol (pH ∼ 7.2), which corresponds to the efflux of drug from the acidic digestive vacuole (pH 5.2) into the parasite cytoplasm (pH 7.2). The topology of PfCRT in the oolemma is such that both the N- and C-terminus face the extracellular milieu[3],[22]. In the parasite, the N- and C-terminus face the lumen of the digestive vacuole. CQ uptake kinetics were performed by incubating oocytes in ND96 buffer adjusted to a pH of 4.5, 5.0, 5.5, or 6.0 and supplemented with 50 nM [^3H]CQ and one of 7 different CQ concentrations (10 µM, 50 µM, 100 µM, 200 µM, 300 µM, 400 µM, 500 µM CQ). The reaction was stopped at the 60 min time point, which is in the linear uptake range[22],[34] (Supplementary Fig. 17). For determination of the amount of drug uptake for each oocyte, the reaction medium was removed and the oocytes were washed three times with 2 ml of ice-cold ND96 buffer. Each oocyte was individually transferred to a scintillation vial containing 5% sodium dodecyl sulfate (200 μl) for lysis. The radioactivity of each sample was measured using a liquid scintillation analyzer Tri-Carb 4910 TR (PerkinElmer). Oocytes that were injected with water instead of RNA were analyzed in parallel, representing the uptake of a drug by diffusion and/or endogenous permeation pathways. The resulting value represents the “background“ level of drug accumulation in oocytes (in-depth discussion in[22]). […]
# PfCRT variant E204A = biological target: T1, PfCRT variant E204A (Plasmodium falciparum, UniProt Q9N623, A220S/E204A/I356T/K76T/M74I/N326S/N75E/Q271E/R371I); experiment: CQ uptake assay, oocytes expressing E204A; format: cell-based
# T1 sequence (Q9N623 1-424 M74I/N75E/K76T/E204A/A220S/Q271E/N326S/I356T/R371I): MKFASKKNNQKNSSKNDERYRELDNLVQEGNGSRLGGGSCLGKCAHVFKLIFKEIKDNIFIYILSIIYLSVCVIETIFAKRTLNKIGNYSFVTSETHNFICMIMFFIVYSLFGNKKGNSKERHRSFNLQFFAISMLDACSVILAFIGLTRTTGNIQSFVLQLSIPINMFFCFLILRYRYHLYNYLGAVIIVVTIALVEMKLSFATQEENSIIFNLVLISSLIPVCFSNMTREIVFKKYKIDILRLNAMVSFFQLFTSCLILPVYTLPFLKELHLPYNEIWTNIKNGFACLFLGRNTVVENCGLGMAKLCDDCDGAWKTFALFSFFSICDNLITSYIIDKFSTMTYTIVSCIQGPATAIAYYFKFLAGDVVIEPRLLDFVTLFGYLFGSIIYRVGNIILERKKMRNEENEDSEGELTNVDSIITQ
# Method: as §1, §2, §3
# PfCRT variant E207N = experiment: CQ uptake assay, oocytes expressing E207N; format: cell-based, Plasmodium falciparum
# Method: as §1, §2, §3
# [1] = E18A, 50 µM CQ, 1 h, mean ± SEM
# [2] = pH 4.5, single replicates, Fig 1d left
# [3] = pH 6.0, single replicates, Fig 1d left
# [4] = E204A, 50 µM CQ, 1 h, mean ± SEM
# [5] = E207N, 50 µM CQ, 1 h, mean ± SEM
compound,measurement,setting,value
"CCN(CC)CCCC(C)Nc1ccnc2cc(Cl)ccc12 (stereo not drawn) [CQ, chloroquine]",Activity at pH 4.5,PfCRT variant E18A; [1],1.51 ± 0.34 pmol h-1 oocyte-1
same,Activity at pH 6.0,PfCRT variant E18A; [1],2.60 ± 0.53 pmol h-1 oocyte-1
same,R-value,"PfCRT variant E18A; E18A, CQ transport at pH 4.5 / pH 6.0",0.57 ± 0.06
same,E18A transport activity pH 4.5,PfCRT variant E18A; [2],2.19 pmol oocyte-1 h-1 and 1.60 pmol oocyte-1 h-1 and 0.74 pmol oocyte-1 h-1
same,E18A R-value,"PfCRT variant E18A; pH 4.5 vs pH 6.0, Fig 1d left",0.57 and 0.70 and 0.44
same,E18A transport activity pH 6.0,PfCRT variant E18A; [3],3.85 pmol oocyte-1 h-1 and 2.27 pmol oocyte-1 h-1 and 1.67 pmol oocyte-1 h-1
same,Activity at pH 4.5,PfCRT variant E204A; [4],1.43 ± 0.06 pmol h-1 oocyte-1
same,Activity at pH 6.0,PfCRT variant E204A; [4],2.98 ± 0.34 pmol h-1 oocyte-1
same,R-value,"PfCRT variant E204A; E204A, CQ transport at pH 4.5 / pH 6.0",0.51 ± 0.09
same,E204A transport activity pH 4.5,PfCRT variant E204A; [2],1.57 pmol oocyte-1 h-1 and 1.35 pmol oocyte-1 h-1 and 1.36 pmol oocyte-1 h-1
same,E204A R-value,"PfCRT variant E204A; pH 4.5 vs pH 6.0, Fig 1d left",0.72 and 0.42 and 0.38
same,E204A transport activity pH 6.0,PfCRT variant E204A; [3],2.18 pmol oocyte-1 h-1 and 3.22 pmol oocyte-1 h-1 and 3.54 pmol oocyte-1 h-1
same,Activity at pH 4.5,PfCRT variant E207N; [5],2.54 ± 0.34 pmol h-1 oocyte-1
same,Activity at pH 6.0,PfCRT variant E207N; [5],2.81 ± 0.43 pmol h-1 oocyte-1
same,R-value,"PfCRT variant E207N; E207N, CQ transport at pH 4.5 / pH 6.0",0.93 ± 0.07
same,E207N transport activity pH 4.5,"PfCRT variant E207N; pH 4.5, individual replicates, Fig 6b",3.35 pmol oocyte-1 h-1 and 2.62 pmol oocyte-1 h-1 and 1.45 pmol oocyte-1 h-1 and 2.72 pmol oocyte-1 h-1
same,E207N transport activity pH 6.0,"PfCRT variant E207N; pH 6.0, individual replicates, Fig 6b",3.09 pmol oocyte-1 h-1 and 3.00 pmol oocyte-1 h-1 and 1.41 pmol oocyte-1 h-1 and 3.72 pmol oocyte-1 h-1
same,E207NR-value,PfCRT variant E207N; ratio of activity pH 4.5 / pH 6.0,1.08 and 0.87 and 1.03 and 0.73
